In patent US9309240B2, “Pyrazolopyridine compounds, compositions and methods of use” (F. HOFFMANN-LA ROCHE AG, priority 2010, dated 2016):
Counter-ions that a name gives are not always drawn.

Each compound was assayed against T1, TYK2 kinase domain (Homo sapiens, UniProt P29597) (assay: JAK1, JAK2 and TYK2 Inhibition Assay Protocol (Example A): TYK2 kinase domain, Caliper LabChip peptide phosphorylation). Settings: isolated TYK2 kinase domain, 1 nM enzyme, 25 uM ATP, Morrison tight binding model.
T1 construct: The activity of the isolated JAK1, JAK2 or TYK2 kinase domain was measured
T1 sequence (P29597 897-1176 limits assumed): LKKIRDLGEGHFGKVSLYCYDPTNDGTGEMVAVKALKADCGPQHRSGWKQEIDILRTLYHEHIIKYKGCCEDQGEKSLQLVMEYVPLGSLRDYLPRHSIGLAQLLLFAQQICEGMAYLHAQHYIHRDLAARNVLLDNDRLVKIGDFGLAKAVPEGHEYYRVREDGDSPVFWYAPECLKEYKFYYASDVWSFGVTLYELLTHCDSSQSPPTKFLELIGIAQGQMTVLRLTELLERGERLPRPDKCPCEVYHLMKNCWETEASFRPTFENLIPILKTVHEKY
Assay type: biochemical
Method: The activity of the isolated JAK1, JAK2 or TYK2 kinase domain was measured by monitoring phosphorylation of a peptide derived from JAK3 (Val-Ala-Leu-Val-Asp-Gly-Tyr-Phe-Arg-Leu-Thr-Thr) fluorescently labeled on the N-terminus with 5-carboxyfluorescein using the Caliper LabChip technology (Caliper Life Sciences, Hopkinton, Mass.). To determine the inhibition constants (Ki) of Examples 1-165, compounds were diluted serially in DMSO and added to 50 μL kinase reactions containing 1.5 nM JAK1, 0.2 nM purified JAK2 or 1 nM purified TYK2 enzyme, 100 mM Hepes pH7.2, 0.015% Brij-35, 1.5 uM peptide substrate, 25 uM ATP, 10 mM MgCl2, 4 mM DTT at a final DMSO concentration of 2%. Reactions were incubated at 22° C. in 384-well polypropylene microtiter plates for 30 minutes and then stopped by addition of 25 μL of an EDTA containing solution (100 mM Hepes pH 7.2, 0.015% Brij-35, 150 mM EDTA), resulting in a final EDTA concentration of 50 mM. After termination of the kinase reaction, the proportion of phosphorylated product was determined as a fraction of total peptide substrate using the Caliper LabChip 3000 according to the manufacturer's specifications. Ki values were then determined using the Morrison tight binding model. Morrison, J. F., Biochim. Biophys. Acta. 185:269-296 (1969); William, J. W. and Morrison, J. F., Meth. Enzymol., 63:437-467 (1979).

Row | Structure (SMILES) | Ki
1 | O=C(Nc1nccc2nn(-c3c(Cl)cccc3Cl)cc12)C1CC1 [Example 1, N-(2-(2,6-Dichlorophenyl)-2H-pyrazolo[4,3-c]pyridin-4-yl)cyclopropanecarboxamide] | 1.3 nM
2 | Cc1cc(Nc2nccc3nn(-c4c(Cl)cccc4Cl)cc23)nc(C)n1 [Example 2, [2-(2,6-Dichlorophenyl)-2H-pyrazolo[4,3-c]pyridine-4-yl]-(2,6-dimethylpyrimidin-4-yl)amine] | 2 nM
3 | N#Cc1ccc(Nc2nccc3nn(-c4c(Cl)cccc4Cl)cc23)nc1 [Example 3, 6-[2-(2,6-Dichlorophenyl)-2H-pyrazolo[4,3-c]pyridin-4-ylamino]nicotinonitrile] | 3 nM
4 | COC(=O)Nc1nccc2nn(-c3c(Cl)cccc3Cl)cc12 [Example 6, [2-(2,6-Dichlorophenyl)-2H-pyrazolo[4,3-c]pyridine-4-yl]carbamic acid methyl ester] | 5.2 nM
5 | CNC(=O)Nc1nccc2nn(-c3c(Cl)cccc3Cl)cc12 [Example 7, 1-[2-(2,6-Dichlorophenyl)-2H-pyrazolo[4,3-c]pyridine-4-yl]-3-methylurea] | 3.3 nM
6 | O=C(Nc1nccc2nn(-c3c(F)cccc3Cl)cc12)C1CC1 [Example 15, N-(2-(2-chloro-6-fluorophenyl)-2H-pyrazolo[4,3-c]pyridin-4-yl)cyclopropanecarboxamide] | 1.6 nM
7 | Cc1cc(Nc2ncc(Cl)c3nn(-c4c(Cl)cc(C#N)cc4Cl)cc23)ncn1 [Example 30, 3,5-Dichloro-4-[7-chloro-4-(6-methylpyrimidin-4-ylamino)pyrazolo[4,3-c]pyridin-2-yl]benzonitrile] | 5.6 nM
8 | N#Cc1cc(Cl)c(-n2cc3c(Nc4cc(N)ncn4)ncc(F)c3n2)c(Cl)c1 [Example 34, 4-[4-(6-Amino-pyrimidin-4-ylamino)-7-fluoro-pyrazolo[4,3-c]pyridin-2-yl]-3,5-dichlorobenzonitrile.HCl] | 0.4 nM
9 | OCc1cc(Nc2ncc(Br)c3nn(-c4c(Cl)cccc4Cl)cc23)ncn1 [Example 37, {6-[7-Bromo-2-(2,6-dichloro-phenyl)-2H-pyrazolo[4,3-c]pyridin-4-ylamino]-pyrimidin-4-yl}-methanol] | 0.4 nM
10 | N#Cc1cnc(Nc2cc(N)ncn2)c2cn(-c3c(Cl)cccc3Cl)nc12 [Example 40, 4-(6-Aminopyrimidin-4-ylamino)-2-(2,6-dichlorophenyl)-2H-pyrazolo[4,3-c]pyridine-7-carbonitrile] | 1.1 nM
11 | OCCN1CCN(c2cc(Nc3nccc4nn(-c5c(Cl)cccc5Cl)cc34)ncn2)CC1 [Example 49, 2-(4-(6-((2-(2,6-dichlorophenyl)-2H-pyrazolo[4,3-c]pyridin-4-yl)amino)-pyrimidin-4-yl)piperazin-1-yl)ethan-1-ol] | 1.9 nM

Results, then the compound that gave them:

Row | Ki | Structure (SMILES)
12 | 1 nM | Cc1cc(Nc2nccc3nn(-c4c(Cl)cccc4Cl)cc23)ncc1C#N [Example 53, 6-[2-(2,6-Dichlorophenyl)-2H-pyrazolo[4,3-c]pyridin-4-ylamino]-4-methyl-nicotinonitrile]
13 | 14.9 nM | CS(=O)(=O)c1cc(Cl)c(-n2cc3c(NC(=O)C4CC4)nccc3n2)c(Cl)c1 [Example 67, N-(2-(2,6-dichloro-4-methane-sulphonyl-phenyl)-2H-pyrazolo[4,3-c]pyridine-4-yl)cyclopropane-carboxamide]
14 | 2 nM | N#Cc1cc(Cl)c(-n2cc3c(NC(=O)C4CC4)nccc3n2)c(Cl)c1 [Example 69, N-(2-(2,6-dichloro-4-cyanophenyl)-2H-pyrazolo[4,3-c]pyridin-4-yl)cyclopropane-carboxamide]
15 | 2.2 nM | Nc1cc(Nc2nccc3nn(-c4c(F)ccc(F)c4Cl)cc23)ncn1 [Example 81, N4-(2-(2-chloro-3,6-difluorophenyl)-2H-pyrazolo[4,3-c]pyridin-4-yl)pyrimidine-4,6-diamine]
16 | 0.8 nM | CC(O)c1cc(Nc2ncc(F)c3nn(-c4c(Cl)cccc4C#N)cc23)ncn1 (stereo not shown) [Example 96, 3-Chloro-2-{7-fluoro-4-[6-(1-hydroxyethyl)-pyrimidin-4-ylamino]-pyrazolo[4,3-c]pyridin-2-yl}-benzonitrile]
17 | 105 nM | N#Cc1cc(N)cc(Cl)c1-n1cc2c(Nc3cc(N)ncn3)ncc(F)c2n1 [Example 101, 5-Amino-2-[4-(6-aminopyrimidin-4-ylamino)-7-fluoropyrazolo[4,3-c]pyridin-2-yl]-3-chlorobenzonitrile formate salt]
18 | 0.1 nM | N#Cc1cccc(Cl)c1-n1cc2c(Nc3cc(N)ncn3)ncc(Cl)c2n1 [Example 151, 2-(4-(6-aminopyrimidin-4-ylamino)-7-chloro-2H-pyrazolo[4,3-c]pyridin-2-yl)-3-chlorobenzonitrile]
19 | 1.8 nM | Cc1cc(Nc2cc(Cl)c(-n3cc4c(Nc5cc(C)ncn5)nccc4n3)c(C#N)c2)ncn1 [Example 158, 3-chloro-5-(6-methylpyrimidin-4-ylamino)-2-(4-(6-methylpyrimidin-4-ylamino)-2H-pyrazolo[4,3-c]pyridin-2-yl)benzonitrile]
